Results from paper PMC11672299, “Conjugation of Polycationic Peptides Extends the Efficacy Spectrum of β‐Lactam Antibiotics” (Advanced Science, 2024).

Experiments:
[1] = system: A. pittii Tü21‐041 (clinical isolate); assay: microbe, parasite or virus in culture; assay type: cell-based; conditions: Acinetobacter pittii; A. pittii Tü21‐041; median (n = 3); read-out: MIC
Procedure, shortened: (§1)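 Broth microdilution in cation-adjusted MHB II with twofold serial compound dilutions; final inoculum 5 × 10^5 CFU mL^−1, incubated 20 h at 37 ± 1 °C. MIC = lowest concentration preventing visible growth. β-Lactamase inhibitors were added at fixed levels (clavulanic acid 2 mg L^−1, avibactam 4 mg L^−1).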

E. coli ATCC 25 922 (–) = assay: microbe, parasite or virus in culture; assay type: cell-based; conditions: Escherichia coli, 20 h; E. coli ATCC 25922 (no β‐lactamase); combinations: avibactam fixed 4 mg L^−1, clavulanic acid 2 mg L^−1; median (n = 3)
Procedure, shortened: as §1

[2] = system: K. pneumoniae ATCC 700 603 (SHV‐18); assay: microbe, parasite or virus in culture; assay type: cell-based; conditions: Klebsiella pneumoniae, 20 h; K. pneumoniae ATCC 700603 (SHV‐18); combinations: avibactam fixed 4 mg L^−1, clavulanic acid 2 mg L^−1; median (n = 3)
Procedure, shortened: as §1

HEK‐293 cells = assay: Cytotoxicity assay (PrestoBlue viability); assay type: cell-based, human; conditions: HEK‐293, up to 512 µg mL^−1, 24 h
Experimental: (§2) To exclude any cytotoxic effects on mammalian cells prior to in vivo studies, the viability of the cell lines HEP‐G2 (hepatocellular carcinoma) and HEK‐293 (human […] embryonal kidney) after incubation with different concentrations of the β‐lactam–peptide conjugates were determined. For the viability assay, 10^4 cells per well were seeded in a 96‐well half area microplate and incubated overnight in a humidified 5% CO2 atmosphere at 37 °C. The next day, the conjugates were twofold serially diluted in PBS and added to the cells to obtain final concentrations ranging from 1–512 µg mL^−1. Cells were then incubated with the antibiotics in a humidified 5% CO2 atmosphere at 37 °C for a further 24 h. PrestoBlue HS Cell Viability Reagent was then added to the wells and the plates again were incubated in a humidified 5% CO2 atmosphere at 37 °C for 1 h. Afterwards, the absorption at 570 nm and 600 nm (reference) using an Infinite M200 PRO microplate reader (Tecan, Männedorf, Switzerland) was measured. Cell viability was calculated using the untreated control cells as a reference for 100% alive cells.

HEPG2 cells = assay: Cytotoxicity assay (PrestoBlue viability); assay type: cell-based, human; conditions: HEPG2, up to 512 µg mL^−1, 24 h
Experimental: as §2

[3] = system: S. aureus LAC* lux USA300 (MRSA); assay: MIC by broth microdilution; assay type: cell-based; conditions: Staphylococcus aureus
Experimental: (§3) The minimum inhibitory concentration (MIC) of the β‐lactam–peptide conjugates was determined by broth microdilution as previously described.^[ [17] ^] Briefly, in cation‐adjusted MHB II medium, a twofold serial dilution of the compounds was prepared in 96‐well round‐bottom polystyrene or polypropylene microtiter plates with each well containing 50 µL. The plates were inoculated with 50 µL bacterial suspension and the final inoculum, in a total volume of 100 µL, contained 5 × 10^5 CFU mL^−1. The microplates were incubated for 20 h at 37 ± 1 °C. The lowest concentration preventing visible bacterial growth was considered the MIC value. For susceptibility testing of combinations of β‐lactamase‐inhibitors with either a β‐lactam antibiotic or a β‐lactam–peptide conjugate, fixed concentrations of the inhibitors according to the EUCAST (European Committee on Antimicrobial Susceptibility Testing) guidelines (clavulanic acid = 2 mg L^−1, avibactam = 4 mg L^−1) were used.

[4] = system: CTZ‐resistant A. baumannii (n = 4); assay type: cell-based
Experimental: as §3

[5] = system: CTZ‐resistant C. freundii (n = 3); assay type: cell-based; conditions: 20 h
Experimental: as §3

[6] = system: E. casseliflavus (ATCC 700 327); assay: Spontaneous resistance rate; assay type: cell-based; conditions: E. casseliflavus ATCC 700 327, agar with 16 µg mL^−1 CTZ‐R6
Experimental: The rate of spontaneous resistance of E. casseliflavus (ATCC 700 327) against CTZ‐R6 was investigated as previously described.^[ [33] ^] A bacterial suspension of ATCC 700 327 was adjusted to an OD600 of 1 with 0.9% NaCl, corresponding to a theoretical concentration of 2 × 10^8 CFU mL^−1. 250 µL of the suspension were plated on 10 cation‐adjusted MHB II agar plates containing 16 µg mL^−1 CTZ‐R6 and incubated at 37 °C for 18 h. As concentration control, the bacterial inoculum (OD600 = 1) was diluted and plated on antibiotic‐free cation adjusted MHB II agar plates and incubated at 37 °C for 18 h. The number of colonies on both types of plates was counted and the spontaneous resistance rate was calculated accordingly: (2) SpontaneousResistanceRate=#coloniesonantibioticplates/#coloniesoncontrolplatexdilutionfactorx2.5

[7] = system: VRE E. faecium UW 18 830 (vanA); assay: Systemic infection VRE mouse model; assay type: in vivo, female Balb/c mice; conditions: VRE E. faecium UW18830 infected Balb/c mice, 30 mg kg^−1 day^−1 i.v., 48 h p.i., compared to CTZ or PBS
Source text: The animal infection studies were approved by the local government of Lower Franconia, Germany (approval number 55.2.2‐2532.2‐1283) and performed in strict accordance with the guidelines for animal care and experimentation of the German Animal Protection Law and the DIRECTIVE 2010/63/EU of the EU. The animals were housed in individually ventilated cages under standardized lighting conditions and had ad libitum access to food and water. To evaluate the in vivo activity during systemic infection, female Balb/c mice were infected with 5×10^7 CFU of VRE E. faecium UW 18 830 (vanA) by tail vein injection. Beginning at 1 h p.i., then repeatedly every 12 h, mice received intravenously either CTZ (30 mg kg body weight^−1 day^−1), CTZ‐R6 (30 mg kg body weight^−1 day^−1) or sterile PBS. The livers were recovered 48 h p.i. (12 h after the last treatment) and frozen at – 80 °C until further processing. For the determination of the bacterial burden, the livers were thawed, homogenized in PBS and plated in serial dilutions on brain heart infusion agar plates. CFU were counted after overnight incubation at 37 °C.

A. bohemicus DSM 100419 = assay: MIC by broth microdilution; assay type: cell-based; conditions: median (n = 3)
Experimental: as §3

Question: Which results are given for `CC(C)(O/N=C(\C(=O)N[C@@H]1C(=O)N2C(C(=O)[O-])=C(C[n+]3ccccc3)CS[C@H]12)c1csc(N)n1)C(=O)O` [CTZ, ceftazidime, reference compound]?
Answer: MIC [1]: 4 µg/mL; MIC (E. coli ATCC 25 922 (–)): 0.25 µg/mL; MIC [2]: 64 µg/mL; cytotoxicity (cell viability) (HEK‐293 cells): no significant cytotoxicity; cytotoxicity (cell viability) (HEPG2 cells): no significant cytotoxicity; MIC [3]: 16 µg/mL

Question: With `CC(C)(O/N=C(\C(=O)N[C@@H]1C(=O)N2C(C(=O)[O-])=C(C[n+]3ccccc3)CS[C@H]12)c1csc(N)n1)C(=O)NCCCCCCN1C(=O)CC(SC[C@H](NC(=O)[C@H](CCCNC(=N)N)NC(=O)[C@H](CCCNC(=N)N)NC(=O)[C@H](CCCNC(=N)N)NC(=O)[C@H](CCCNC(=N)N)NC(=O)[C@H](CCCNC(=N)N)NC(=O)[C@@H](N)CCCNC(=N)N)C(N)=O)C1=O` (stereo partly drawn) [CTZ-R6] as the compound, how does the MIC range ([4]; CTZ‐resistant (n = 4, 20 h)) read?
Answer: The MIC range was 4 to 16 µg/mL.

Question: What about the “increase in antimicrobial activity versus CTZ” value ([4]; CTZ‐resistant A. baumannii) of the same compound?
Answer: The value was roughly 16 fold.

Question: What about the MIC range [5] of the same compound?
Answer: The MIC range was 0.5 to 64 µg/mL.

Question: What about the spontaneous resistance rate [6] of the same compound?
Answer: Its spontaneous resistance rate is < 2.7 × 10^−9.

Question: What about the “bacterial burden in the liver (CFU)” value [7] of the same compound?
Answer: The value was “reduced the bacterial burden in the liver”.

Question: And the “antimicrobial activity (rank among CTZ–peptide conjugates)” value (A. bohemicus DSM 100419)?
Answer: Its value is “most potent conjugates”.
